“Also recorded” adds a separate entry of the source. Where two headings read alike, the source gives them in different places.
Assays:
UGT = test: Effect of multiple-dose lorlatinib on the pharmacokinetics of acetaminophen; format: in vivo, human
CYP2C8 = details: in vitro; cited from earlier work
[1] = after oral administration; cited from earlier work
CYP2B6 [2] = details: in vitro; cited from earlier work
CYP3A4/5 [3] = details: cited from earlier work
[4] = test system: human pregnane X receptor (PXR); details: cited from earlier work
CYP3A4/5 [5] = details: cited from earlier work; remark: listed apart in the source
CYP2C9 [6] = details: in vitro; cited from earlier work
bacterial assay = details: in vitro bacterial assay; cited from earlier work
[7] = test system: human lymphoblastoid TK6 cells; details: cited from earlier work
CYP2B6 [8] = test: Effect of multiple-dose lorlatinib on the pharmacokinetics of bupropion; format: in vivo, human
P-glycoprotein (P-gp) [9] = details: MDCK II-MDR1 cells, substrate digoxin; cited from earlier work
CYP3A4/5 [10] = details: lorlatinib with itraconazole; cited from earlier work
bone marrow of rats = details: cited from earlier work
CYP2C19 = details: in vitro; cited from earlier work
CYP1A2 = details: in vitro; cited from earlier work
CYP2D6 = details: in vitro; cited from earlier work
CYP3A4/5 [11] = details: cited from earlier work; remark: listed apart in the source
plasma proteins = details: cited from earlier work
P-glycoprotein (P-gp) [12] = biological target: P-glycoprotein (P-gp) (Homo sapiens, UniProt P08183); test: Effect of multiple-dose lorlatinib on the pharmacokinetics of fexofenadine; format: in vivo; details: lorlatinib 100 mg QD at steady state; probe fexofenadine
CYP3A4/5 [13] = details: lorlatinib with modafinil; cited from earlier work
CYP2C9 [14] = test: Effect of multiple-dose lorlatinib on the pharmacokinetics of tolbutamide; format: in vivo, human; details: lorlatinib 100 mg QD at steady state; probe tolbutamide
[15] = acetaminophen with lorlatinib 100 mg QD vs acetaminophen alone
[16] = single oral 2-mg dose of midazolam with lorlatinib 150 mg QD

P-glycoprotein (P-gp) (Homo sapiens, UniProt P08183), sequence (P08183 whole entry): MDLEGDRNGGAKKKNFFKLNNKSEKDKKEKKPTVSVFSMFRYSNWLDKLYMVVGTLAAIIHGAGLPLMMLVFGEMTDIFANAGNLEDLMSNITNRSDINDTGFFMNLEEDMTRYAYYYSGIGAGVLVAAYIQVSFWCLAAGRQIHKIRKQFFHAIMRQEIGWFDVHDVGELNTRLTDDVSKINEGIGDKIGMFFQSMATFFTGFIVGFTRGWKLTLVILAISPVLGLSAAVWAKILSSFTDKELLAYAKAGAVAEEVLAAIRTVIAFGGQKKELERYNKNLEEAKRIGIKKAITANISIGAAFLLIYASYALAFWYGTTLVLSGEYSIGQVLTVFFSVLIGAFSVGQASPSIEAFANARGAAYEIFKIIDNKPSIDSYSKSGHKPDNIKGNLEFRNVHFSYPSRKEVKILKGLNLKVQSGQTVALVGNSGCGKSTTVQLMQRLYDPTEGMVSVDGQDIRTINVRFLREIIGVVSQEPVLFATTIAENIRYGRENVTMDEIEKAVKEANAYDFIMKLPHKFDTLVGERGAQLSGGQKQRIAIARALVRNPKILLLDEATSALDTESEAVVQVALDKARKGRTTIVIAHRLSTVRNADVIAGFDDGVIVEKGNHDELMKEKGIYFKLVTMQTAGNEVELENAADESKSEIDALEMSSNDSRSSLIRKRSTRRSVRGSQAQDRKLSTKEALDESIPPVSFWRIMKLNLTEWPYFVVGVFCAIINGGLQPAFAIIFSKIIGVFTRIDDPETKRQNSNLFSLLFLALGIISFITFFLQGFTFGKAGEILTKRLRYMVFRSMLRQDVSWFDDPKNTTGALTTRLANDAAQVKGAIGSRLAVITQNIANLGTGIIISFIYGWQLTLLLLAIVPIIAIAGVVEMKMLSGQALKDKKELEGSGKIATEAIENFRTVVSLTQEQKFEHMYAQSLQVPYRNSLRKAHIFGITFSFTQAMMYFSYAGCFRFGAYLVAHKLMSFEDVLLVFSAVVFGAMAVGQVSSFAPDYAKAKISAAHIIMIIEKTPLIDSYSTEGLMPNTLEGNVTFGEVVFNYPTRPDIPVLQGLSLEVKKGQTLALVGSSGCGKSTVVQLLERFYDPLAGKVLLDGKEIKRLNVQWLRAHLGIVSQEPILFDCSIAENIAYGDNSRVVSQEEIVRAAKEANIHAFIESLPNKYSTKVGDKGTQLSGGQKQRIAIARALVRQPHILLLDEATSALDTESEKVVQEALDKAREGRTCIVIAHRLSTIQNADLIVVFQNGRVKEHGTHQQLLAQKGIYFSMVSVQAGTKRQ

C[C@H]1Oc2cc(cnc2N)-c2c(nn(C)c2C#N)CN(C)C(=O)c2ccc(F)cc21 [Lorlatinib, (10R)-7-amino-12-fluoro-2,10,16-trimethyl-15-oxo-10,15,16,17-tetrahydro-2H-8,4-(metheno)pyrazolo[4,3-h][2,5,11]-benzoxadiazacyclotetradecine-3-carbonitrile]
Inducer classification, UGT (UGT; lorlatinib 100 mg QD at steady state, probe acetaminophen): weak (≥ 20% to < 50%)
Inhibition of CYP2C8 (CYP2C8): do not inhibit
Bioavailability [1]: 81%
Inhibition of CYP2B6 (CYP2B6 [2]): do not inhibit
Transaminase / liver enzyme levels (CYP3A4/5 [3]; coadministration of lorlatinib with rifampin): elevated liver enzyme levels; also recorded: rapid elevations in transaminase values
Reduction in Cmax (CYP3A4/5 [3]; lorlatinib with rifampin): 76%
Reduction in mean AUC∞ (CYP3A4/5 [3]; lorlatinib with rifampin): 85%
PXR activation [4]: activate PXR
Effect on CYP3A4/5 (CYP3A4/5 [5]): time-dependent inhibitor and inducer
Inhibition of CYP2C9 (CYP2C9 [6]): do not inhibit
Mutagenicity (bacterial assay): not mutagenic
Aneugenicity in vitro [7]: aneugenic
Inducer classification, CYP2B6 (CYP2B6 [8]; lorlatinib 100 mg QD at steady state, probe bupropion): weak (≥ 20% to < 50%)
Inhibition of P-gp efflux (P-glycoprotein (P-gp) [9]): inhibit
Increase in AUC∞ (CYP3A4/5 [10]): 42%
Increase in Cmax (CYP3A4/5 [10]): 24%
Aneugenicity in vivo (bone marrow of rats): aneugenic
Inhibition of CYP2C19 (CYP2C19): do not inhibit
Inhibition of CYP1A2 (CYP1A2): do not inhibit
Inhibition of CYP2D6 (CYP2D6): do not inhibit
Inducer classification, CYP3A4/5 (CYP3A4/5 [11]; after multiple dosing, probe midazolam): moderate (≥ 50% to < 80%)
Binding to plasma proteins (plasma proteins): 66%
Inducer classification, P-gp (P-glycoprotein (P-gp) [12]): moderate (≥ 50% to < 80%)
Reduction in AUC∞ (CYP3A4/5 [13]): 23%
Reduction in Cmax (CYP3A4/5 [13]): 22%
Inducer classification, CYP2C9 (CYP2C9 [14]): weak (≥ 20% to < 50%)

CC(NC(C)(C)C)C(=O)c1cccc(Cl)c1 (stereo not shown) [Bupropion, bupropion]
Decrease in Cmax (CYP2B6 [8]; bupropion with lorlatinib 100 mg QD vs bupropion alone): 27%

CC(=O)Nc1ccc(O)cc1 [Acetaminophen, acetaminophen]
Decrease in AUC∞ (UGT; [15]): 45%
Decrease in Cmax (UGT; [15]): 28%

Cc1ncc2n1-c1ccc(Cl)cc1C(c1ccccc1F)=NC2 [midazolam]
Decrease in AUC∞ (CYP3A4/5 [11]; [16]): 64%
Decrease in Cmax (CYP3A4/5 [11]; [16]): 50%

Source: paper PMC10847213 (Clinical Pharmacokinetics, 2023)
